Assay results: patent US20060063784A1, “Method of using substituted pyrazolo [1,5-a] pyrimidines” (priority 2004, published 2006)
Read-outs that look alike come from different tables or passages of the source.

Test system: 80S14 (p21-deficient) cells
Assay: Cytotoxicity assay using isogenic cell lines: IC50 in 80S14 (p21-deficient) cells, SRB
Type: cell-based, human
Method: Cytotoxicity Assay Using Isogenic Cell Lines: • 1. 80S14 (p21-deficient) cells were cultured in RPMI 1640 medium (Gibco/Invitrogen Life technologies) supplemented with 10% fetal bovine serum (FBS, Gibco) and 10 μg/ml gentamycin (Gibco). Cells were maintained at 37° C. under 7% CO2 • 2. Cells were plated at 6×10^4/ml (0.2 ml/well; 12,000 cells/well) in 96-well microtiter plates (Falcon or Corning/Costar) and incubated at 37° C. overnight (18-24 hours). • 3. 2-5 μl of the test agent [200 μg/ml stock in 20% DMSO/20 mM HEPES, pH 7.5 (Gibco)] was added to each well to achieve a final concentration of 2-5 μg/ml. Cells were incubated with the test compounds for 5 days at 37° C. • 4. Surviving cells were fixed with 50 μl 50% trichloroacetic acid (Sigma; 10% final concentration) for 1 hour at 4° C. • 5. Plates were rinsed twice with water (0.3 ml per wash using MRD8 robot), and allowed to dry. • 6. Sulforhodamine B (SRB) (Sigma; 0.4% in 1% acetic acid, 50 μl per well; MRD8 robot) was added and plates kept at room temperature for 10 minutes. • 7. Excess dye was removed by washing with 1% acetic acid (3 times, 0.3 ml per wash; MRD8 robot) and allowed to dry. • 8. The dye was solubilized in Tris base (Sigma; 10 mM, 150 μl per well). Plates were kept at room temperature for 30 minutes to allow the dye to diffuse. • 9. Absorbance was measured at 540 nm. • 10. The percentage of cells surviving drug treatment relative to control wells (no drug) was determined. • 11. The difference in % cell survival between the two cell lines was calculated. • 12. Compounds producing a difference score of >50 were considered to be selective for the p21-deficient cells and were evaluated further: Determination of selectivity of compounds for p21−/− cells: • 1. 80S14 cells were cultured as described above. • 2. Cells were seeded in 96-well microtiter plates at 12,000 cells/well (either 0.15 ml/well of 8×10^4 cells/ml suspension, or 0.2 ml/well of 6×10^4 cells/ml suspension). Plates were incubated at 37° C. overnight (18-24 hours). • 3. Serial dilutions of the test agent were added to each well. Dilutions were prepared either in 40% DMSO/20% methanol/20 mM HEPES, pH 7.5 (Gibco) or directly in growth medium. One of two dose ranges were used: 5 pM to 50 μM or 170 pg/ml to 10 μg/ml. Cells were incubated with the test compounds for 5 days at 37° C. • 4. Surviving cells were fixed with 50 μl 50% trichloroacetic acid (Sigma; 10% final concentration) for 1 hour at 4° C. • 5. Plates were rinsed extensively in water, and allowed to dry. • 6. Sulforhodamine B (Sigma; 0.4% in 1% acetic acid, 70 μl per well) was added and plates kept at room temperature for 10 minutes. • 7. Excess dye was removed by washing 5 times with 1% acetic acid and plates were allowed to dry. • 8. The dye was solubilized in Tris base (Sigma; 10 mM, 150 μl per well). Plates were placed on a titer plate shaker (Lab Line Instruments) for 5 minutes to allow the dye to diffuse. • 9. Absorbance was measured at 560 nm.
10. The drug concentration that inhibits cell proliferation by 50% relative to untreated controls (IC50) was determined from cytotoxicity curves.

[1] = 80S14 (p21-deficient) cells, 5 days, SRB, class symbols, read-out: IC50 for 80S14
[2] = Homo sapiens, 120 h, 80S14 p21-deficient cells, 5 days incubation, SRB, read-out: IC50 for 80SI4
[3] = 80S14 p21-deficient cells, 5 days incubation, SRB, read-out: IC50 for 80SI4
[4] = Homo sapiens, 80S14, 120 h, read-out: IC50 for 80SI4 (uM)

Molecule: 1-Methyl-N-{3-[3-(thien-2-ylcarbonyl)pyrazolo[1,5-a]pyrimidin-7-yl]phenyl}piperidine-4-carboxaamide [Example 417]
- IC50 [1]: 10 to 50 µM

Molecule: 3-(3,5-Dimethylphenyl)-7-{3-[2-(2-piperidin-1-ylethyl)-2H-tetrazol-5-yl]phenyl}pyrazolo[1,5-a]pyrimidine [Example 500]
- IC50 [1]: 1 to 10 µM

Molecule: 3.5-Dinitro-N-{3-[3-(2-thienylcarbonyl)pyrazolo[1,5-a]pyrimidin-7-yl]phenyl}benzamide [Example 288]
- IC50 [1]: 10 to 50 µM

Molecule: O=C(Nc1ccccc1)Nc1cccc(-c2ccnc3c(C(=O)c4cccs4)cnn23)c1 [Example 1, N-phenyl-N′-{3-[3-(thien-2-ylcarbonyl)pyrazolo[1,5-a]pyrimidin-7-yl]phenyl}urea]
- IC50 [2]: < 1 µM

Molecule: COC(=O)[C@@H](NC(=O)Nc1cccc(-c2ccnc3c(C(=O)c4cccs4)cnn23)c1)C(C)C [Example 4, methyl N-[({3-[3-(thien-2-ylcarbonyl)pyrazolo[1,5-a]pyrimidin-7-yl]phenyl}amino)carbonyl]-L-valinate]
- IC50 [2]: < 1 µM

Molecule: CCNC(=O)Nc1cccc(-c2ccnc3c(C(=O)c4cccs4)cnn23)c1 [Example 5, N-ethyl-N′-{3-[3-(thien-2-ylcarbonyl)pyrazolo[1,5-a]pyrimidin-7-yl]phenyl}urea]
- IC50 [2]: < 1 µM

Molecule: CC(C)NC(=O)Nc1cccc(-c2ccnc3c(C(=O)c4cccs4)cnn23)c1 [Example 6, N-isopropyl-N′-{3-[3-(thien-2-ylcarbonyl)pyrazolo[1,5-a]pyrimidin-7-yl]phenyl}urea]
- IC50 [2]: < 1 µM

Molecule: C=CCNC(=O)Nc1cccc(-c2ccnc3c(C(=O)c4cccs4)cnn23)c1 [Example 7, N-allyl-N′-{3-[3-(thien-2-ylcarbonyl)pyrazolo[1,5-a]pyrimidin-7-yl]phenyl}urea]
- IC50 [2]: < 1 µM

Molecule: O=C(NC(=O)C(Cl)(Cl)Cl)Nc1cccc(-c2ccnc3c(C(=O)c4cccs4)cnn23)c1 [Example 9, N-{3-[3-(thien-2-ylcarbonyl)pyrazolo[1,5-a]pyrimidin-7-yl]phenyl}-N′-(trichloroacetyl)urea]
- IC50 [2]: 1 to 10 µM

Molecule: CCOC(=O)CNC(=O)Nc1cccc(-c2ccnc3c(C(=O)c4cccs4)cnn23)c1 [Example 10, ethyl N-[({3-[3-(thien-2-ylcarbonyl)pyrazolo[1,5-a]pyrimidin-7-yl]phenyl}amino)carbonyl]glycinate]
- IC50 [2]: 10 to 50 µM

Molecule: C[C@H](NC(=O)Nc1cccc(-c2ccnc3c(C(=O)c4cccs4)cnn23)c1)c1ccccc1 [Example 11, N-[(1S)-1-phenylethyl]-N′-{3-[3-(thien-2-ylcarbon1)pyrazolo[1,5-a]pyrimidin-7-yl]phenyl}urea]
- IC50 [3]: 1 to 10 µM

Molecule: O=C(Nc1cccc(-c2ccnc3c(C(=O)c4cccs4)cnn23)c1)N[C@H]1C[C@@H]1c1ccccc1 [Example 12, N-[(1S,2R)-2-phenylcyclopropyl]-N′-{3-[3-(thien-2-ylcarbonyl)pyrazolo[1,5-a]pyrimidin-7-yl]phenyl}urea]
- IC50 [2]: < 1 µM

Molecule: CC(C)OC(=O)Nc1cccc(-c2ccnc3c(C(=O)c4cccs4)cnn23)c1 [Example 15, isopropyl 3-[3-(thien-2-ylcarbonyl)pyrazolo[1,5-a]pyrimidin-7-yl]phenylcarbamate]
- IC50 [4]: < 1 µM

Molecule: CC(C)COC(=O)Nc1cccc(-c2ccnc3c(C(=O)c4cccs4)cnn23)c1 [Example 16, isobutyl 3-[3-(thien-2-ylcarbonyl)pyrazolo[1,5-a]pyrimidin-7-yl]phenylcarbamate]
- IC50 [4]: < 1 µM

Molecule: O=C(Nc1cccc(-c2ccnc3c(C(=O)c4cccs4)cnn23)c1)OCC(Cl)(Cl)Cl [Example 18, 2,2,2-trichlroethyl 3-[3-(thien-2-ylcarbonyl)pyrazolo[1,5-a]pyrimidin-7-yl]phenylcarbamate]
- IC50 [3]: < 1 µM

Molecule: C=CCCOC(=O)Nc1cccc(-c2ccnc3c(C(=O)c4cccs4)cnn23)c1 [Example 20, 3-butenyl 3-[3-(2-thienylcarbonyl)pyrazolo[1,5-a]pyrimidin-7-yl]phenylcarbamate]
- IC50 [4]: < 1 µM

Molecule: C=C(C)OC(=O)Nc1cccc(-c2ccnc3c(C(=O)c4cccs4)cnn23)c1 [Example 21]
- IC50 [3]: < 1 µM

Molecule: Cc1ccc(OC(=O)Nc2cccc(-c3ccnc4c(C(=O)c5cccs5)cnn34)c2)cc1 [Example 23, 4-methylphenyl 3-[3-(thien-2-ylcarbonyl)pyrazolo[1,5-a]pyrimidin-7-yl]phenylcarbamate]
- IC50 [4]: 10 to 50 µM

Molecule: O=C(Nc1cccc(-c2ccnc3c(C(=O)c4cccs4)cnn23)c1)OCc1ccccc1 [Example 24, benzyl 3-[3-(thien-2-ylcarbonyl)pyrazolo[1,5-a]pyrimidin-7-yl]phenylcarbamate]
- IC50 [2]: < 1 µM

Molecule: CS(=O)(=O)Nc1cccc(-c2ccnc3c(C(=O)c4cccs4)cnn23)c1 [Example 27, N-{3-[3-(thien-2-ylcarbonyl)pyrazolo[1,5-a]pyrimidin-7-yl]phenyl} methanesulfonamide]
- IC50 [2]: 1 to 10 µM

Molecule: CCS(=O)(=O)Nc1cccc(-c2ccnc3c(C(=O)c4cccs4)cnn23)c1 [Example 28, N-{3-[3-(thien-2-ylcarbonyl)pyrazolo[1,5-a]pyrimidin-7-yl]phenyl}ethanesulfonamide]
- IC50 [2]: < 1 µM

Molecule: CCCCS(=O)(=O)Nc1cccc(-c2ccnc3c(C(=O)c4cccs4)cnn23)c1 [Example 29, N-{3-[3-(thien-2-ylcarbonyl)pyrazolo[1,5-a]pyrimidin-7-yl]phenyl}butane-1-sulfonamide]
- IC50 [2]: 1 to 10 µM

Molecule: CC(C)S(=O)(=O)Nc1cccc(-c2ccnc3c(C(=O)c4cccs4)cnn23)c1 [Example 30, N-{3-[3-(thien-2-ylcarbonyl)pyrazolo[1,5-a]pyrimidin-7-yl]phenyl} propane-2-sulfonamide]
- IC50 [2]: 1 to 10 µM

Molecule: O=C(c1cccs1)c1cnn2c(-c3cccc(NS(=O)(=O)c4ccccc4)c3)ccnc12 [Example 31, N-{3-[3-(thien-2-ylcarbonyl)pyrazolo[1,5-a]pyrimidin-7-yl]phenyl}benzenesulfonamide]
- IC50 [2]: 1 to 10 µM

Molecule: Cc1ccc(S(=O)(=O)Nc2cccc(-c3ccnc4c(C(=O)c5cccs5)cnn34)c2)cc1 [Example 32, 4-methyl-N-{3-[3-(thien-2-ylcarbonyl)pyrazolo[1,5-a]pyrimidin-7-yl]phenyl}benzenesulfonamide]
- IC50 [2]: < 1 µM

Molecule: Cc1ccccc1S(=O)(=O)Nc1cccc(-c2ccnc3c(C(=O)c4cccs4)cnn23)c1 [Example 33, 2-methyl-N-{3-[3-(thien-2-ylcarbonyl)pyrazolo[1,5-a]pyrimidin-7-yl]phenyl}benzenesulfonamide]
- IC50 [2]: < 1 µM

Molecule: O=C(c1cccs1)c1cnn2c(-c3cccc(NS(=O)(=O)c4ccc(F)cc4)c3)ccnc12 [Example 34, 4-fluoro-N-{3-[3-(thien-2-ylcarbonyl)pyrazolo[1,5-a]pyrimidin-7-yl]phenyl}benzenesulfonamide]
- IC50 [2]: < 1 µM

Molecule: O=C(c1cccs1)c1cnn2c(-c3cccc(NS(=O)(=O)c4ccc(Br)cc4)c3)ccnc12 [Example 35, 4-bromo-N-{3-[3-(thien-2-ylcarbonyl)pyrazolo[1,5-a]pyrimidin-7-yl]phenyl}benzenesulfonamide]
- IC50 [2]: 1 to 10 µM

Molecule: COc1ccc(S(=O)(=O)Nc2cccc(-c3ccnc4c(C(=O)c5cccs5)cnn34)c2)cc1 [Example 36, 4-methoxy-N-{3-[3-(thien-2-ylcarbonyl)pyrazolo[1,5-a]pyrimidin-7-yl]phenyl}benzenesulfonamide]
- IC50 [2]: 1 to 10 µM

Molecule: O=C(c1cccs1)c1cnn2c(-c3cccc(NS(=O)(=O)/C=C/c4ccccc4)c3)ccnc12 [Example 37, (E)-2-phenyl-N-{3-[3-(thien-2-ylcarbonyl)pyrazolo[1,5-a]pyrimidin-7-yl]phenyl}ethenesulfonamide]
- IC50 [2]: 10 to 50 µM

Molecule: O=C(c1cccs1)c1cnn2c(-c3cccc(NS(=O)(=O)c4cccs4)c3)ccnc12 [Example 38, N-{3-[3-(thien-2-ylcarbonyl)pyrazolo[1,5-a]pyrimidin-7-yl]phenyl}thiophene-2-sulfonamide]
- IC50 [2]: 1 to 10 µM
